The record followed here is PubChem BioAssay (NCI).

Several values for one entry are separate records, joined by “and”; a condition that tells them apart may be missing. Equal values may be shown once.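 Exposure lasted 48 hours, with cells grown in 96-well plates and compounds tested at five concentrations. GI50 = concentration required for 50% inhibition of growth. Definition used: TGI = concentration required for complete inhibition of growth.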

What all share (assay): NCI-60 cell line screen, 48 h
In assay [1] the test system is 786-0 renal.
Assay [2] deals with COLO 205 colon.
Assay [3] has as its system HOP-92 NSCLC.
Assay [4] has as its system HT29 colon.
In assay [5] the test system is MOLT-4 leukemia.
In assay [6] the test system is OVCAR-4 ovarian.
Assay [7] deals with PC-3 prostate.
Assay [8] deals with RPMI-8226 leukemia.
In assay [9] the test system is SF-295 CNS.
For assay [10], the system named is SN12C renal.

Turning to `COc1ccc2c3c1OC1C(OC)(OC)C=C[C@@]4(Br)[C@@H](C2)N(CC2CC2)CC[C@]314` (some centres undefined), the TGI was greater than 100 µM in assay [1]; 94.1 µM in [2]; 83.9 µM in [3]; greater than 100 µM in assay [4]; greater than 100 µM in [5]; greater than 100 µM in [6]. Also, the TGI in assay [7], in assay [8], in assay [9] and in [10] was greater than 100 µM in each case.
In the case of `COc1cc([N+](=O)[O-])c(OC)cc1-c1nc2sc(C)cn2c1/C(N)=N/C(=N)N`, the GI50 in assay [1] was greater than 100 µM; in assay [2], greater than 100 µM; in assay [3], 24.1 µM; in assay [4], greater than 100 µM; in [5], greater than 100 µM; in assay [6], greater than 100 µM. Besides, the GI50 in assay [7] is 45.9 µM; in assay [8], 84.1 µM; in assay [9], 16.6 µM; in assay [10], 18.9 µM. The TGI in assay [1] was greater than 100 µM; in assay [2], greater than 100 µM; in [3], 88.3 µM; in [4] it was greater than 100 µM; in assay [5], greater than 100 µM; in assay [6], greater than 100 µM. The TGI was greater than 100 µM in assay [7], greater than 100 µM in assay [8], greater than 100 µM in assay [9] and 49.1 µM in assay [10].
Turning to `Oc1ccc2c3c1OC1c4[nH]ncc4C[C@H]4[C@@H](C2)N(CC2CC2)CC[C@]314` (some centres undefined), the TGI in assay [1], in [2], in assay [3], in [4], in assay [5] and in assay [6] was greater than 100 µM each time. Moreover, the TGI in [7], in [8], in assay [9] and in assay [10] was greater than 100 µM each time.
On to `COC(=O)c1ccc(/C=C(\c2ccc([N+](=O)[O-])o2)S(=O)(=O)c2ccc(NC(C)=O)cc2)o1`, for which the TGI came to 14.9 µM in assay [1]; 7.56 µM in assay [2]; 24 µM in assay [3]; 5.76 µM in [4]; 7.76 µM in assay [5]; 4.67 µM in assay [6]. The TGI in [7] came to 29.8 µM; in [8], 3.03 µM; in [9] it was 32.7 µM; in assay [10], 1.36 µM.
Consider `O=C(C=P(c1ccccc1)(c1ccccc1)c1ccccc1)CCl`, for which the GI50 in assay [1] is 1.61 µM; in assay [2], 1.53 µM; in [3] it was 0.142 µM; in assay [4], 1.13 µM; in [5], 1.59 µM; in assay [6] it was 0.488 µM. Further, the GI50 was 1.54 µM in assay [7], 0.965 µM in assay [8], 2.3 µM in [9] and 1.46 µM in assay [10]. In addition, the TGI was 3.56 µM in assay [1]; 3.66 µM in assay [2]; 0.693 µM in [3]; 2.8 µM in assay [4]; 6.85 µM in assay [5]; 2.2 µM in [6]. Also, the TGI in assay [7] stood at 3.34 µM; in assay [8] it was 4.45 µM; in [9], 7.62 µM; in assay [10], 4.53 µM.
As to `CN(C)CCCSc1ccccc1NC1=C(Cl)C(=O)C(Nc2ccccc2SCCCN(C)C)=C(Cl)C1=O`, the GI50 in [1] was 1.72 µM; in assay [2], 2.08 µM; in assay [3] it was 1.48 µM; in [4], 2.13 µM; in assay [5], 0.41 µM; in [6], 1.29 µM. Besides, the GI50 in assay [7] was 1.68 µM; in assay [8], 2.35 µM; in assay [9], 1.96 µM; in [10], 1.72 µM. Moreover, the TGI in assay [1] came out at 3.17 µM; in [2], 4.03 µM; in assay [3], 3.06 µM; in assay [4], 4.16 µM; in [5] it was 2.68 µM; in assay [6] it was 2.56 µM. The TGI in assay [7] was found to be 3.84 µM; in [8], 5.62 µM; in assay [9], 3.82 µM; in assay [10] it was 3.18 µM.
For `COCCOC1=CC(=O)c2c(O)ccc(O)c2C1=O`, the GI50 in assay [1] was 1.84 µM; in assay [2], 0.32 µM; in assay [3], 1.54 µM; in [4], 0.995 µM; in assay [5], 1.44 µM; in [6], 1.61 µM. The GI50 in [7] is 2.67 µM; in assay [8] it was 2.03 µM; in [9], 2.06 µM; in assay [10], 1.46 µM. The TGI in [1] was 3.06 µM and 3.61 µM; in [2] it was 0.661 µM and 1.2 µM; in [3] it was 3.7 µM and 3.59 µM; in assay [4] it was 2.05 µM and 2.64 µM; in assay [5], 8.03 µM and 3.53 µM; in assay [6], 3.3 µM and 2.97 µM. Moreover, the TGI in [7] was 4.77 µM and 8.28 µM; in assay [8] it was 8.86 µM and 5.06 µM; in [9] it was 3.09 µM and 3.93 µM; in [10], 3.03 µM and 2.83 µM.
For the compound `Cn1c(=O)nc2n(-c3ccc(Cl)cc3)c3cc(Cl)ccc3nc-2c1=O`, the TGI was found to be 23.7 µM in [1]; 5.14 µM in [2]; 18.5 µM in assay [3]; 9.57 µM in [4]; 16.5 µM in assay [5]; 2.53 µM in assay [6]. Further, the TGI was 24.1 µM in assay [7], 22.8 µM in [8], 23.7 µM in [9] and 13.9 µM in assay [10].
Take `N#Cc1c(NC(=O)c2ccc(F)cc2)sc2c1CCCC2`: the GI50 in assay [1], in assay [2], in assay [3], in [4], in assay [5] and in assay [6] was greater than 25 µM in each case. The GI50 in assay [7], in [8], in assay [9] and in assay [10] was greater than 25 µM in each case. Moreover, the TGI in assay [1], in assay [2], in assay [3], in assay [4], in assay [5] and in assay [6] was greater than 25 µM each time. The TGI in [7], in [8], in assay [9] and in [10] was greater than 25 µM throughout.
Turning to `Cc1ccc2cccc(OC(=O)Nc3cccc(C(F)(F)F)c3)c2n1`, the GI50 was 4.82 µM in assay [1]; 3.47 µM in [2]; 2.21 µM in assay [3]; 3.45 µM in assay [4]; 3.61 µM in [5]; 2.09 µM in assay [6]. Further, the GI50 in assay [7] was 2.74 µM; in [8], 2.52 µM; in assay [9], 2.5 µM; in [10], 2.66 µM. The TGI was determined as 22.2 µM in [1]; 10.3 µM in assay [2]; 6.66 µM in assay [3]; 12 µM in assay [4]; 24.2 µM in assay [5]; 10.3 µM in assay [6]. For the same compound, the TGI in assay [7] is 9.79 µM; in assay [8], 7.21 µM; in assay [9] it was 7.25 µM; in [10], 8.18 µM.
Consider `COc1c(/C=C/C=O)cc2c(c1OC)OCO2`, for which the TGI in assay [1] was greater than 100 µM; in assay [2], greater than 100 µM; in assay [3], greater than 100 µM; in assay [4] it was 69.5 µM; in assay [5] it was 49.6 µM; in assay [6], 85.6 µM. Further, the TGI in assay [7] is greater than 100 µM; in assay [8], 43.4 µM; in assay [9], 52.1 µM; in assay [10] it was 59.3 µM.
Consider `COc1ccc(C(=NN=C(N)N)c2ccc(OC)cc2)cc1`, for which the GI50 in assay [1] is 3.29 µM; in assay [2] it was 1.79 µM; in [3], 1.9 µM; in [4], 2.95 µM; in assay [5], 3.89 µM; in [6], 3.46 µM. In addition, the GI50 is 3.04 µM in assay [7], 5.46 µM in assay [8], 2.72 µM in [9] and 3.15 µM in [10]. Also, the TGI in assay [1] was 13.1 µM; in assay [2], 3.97 µM; in assay [3], 7.45 µM; in assay [4] it was 12.6 µM; in assay [5], 16.7 µM; in [6], 16.4 µM. Besides, the TGI turned out to be 14.4 µM in assay [7], 21.8 µM in [8], 11.2 µM in assay [9] and 15.5 µM in assay [10].
With `COc1cc(/C=C2\CCC/C(=C\c3ccc(O)c(OC)c3)C2=O)ccc1O`, the GI50 was 1.67 µM in assay [1]; 3.61 µM in assay [2]; 2.31 µM in [4]; 2.18 µM in assay [5]; 2.54 µM in assay [6]; 3.14 µM in assay [7]. Further, the GI50 in [8] was 0.397 µM; in assay [9], 1.71 µM; in assay [10], 1.87 µM. Further, the TGI in assay [1] was 4.42 µM and 3.07 µM; in assay [2] it was 24.4 µM and 13.6 µM; in assay [3], 30.7 µM; in assay [4], 18.8 µM and 5.68 µM; in [5] it was 25.6 µM and 15.5 µM; in assay [6], 43.5 µM and 10.6 µM. Further, the TGI in assay [7] was 23.7 µM and 13.6 µM; in assay [8], 10.8 µM and 3.59 µM; in assay [9], 9.16 µM and 5.15 µM; in [10] it was 6.33 µM and 5.01 µM.
On to `COc1cc(/C=C/c2cc(/C=C/c3ccc(O)c(OC)c3)n(C(=O)Nc3ccccc3Cl)n2)ccc1O`, for which the GI50 in assay [1] is 0.426 µM; in assay [2] it was 1.49 µM; in [3], 0.349 µM; in assay [4], 0.323 µM; in assay [5], 0.269 µM; in assay [6], 0.722 µM. Also, the GI50 in assay [7] is 0.392 µM; in [8] it was 0.321 µM; in assay [9], 0.636 µM; in [10], 0.366 µM. Also, the TGI in assay [1] worked out at 1.57 µM; in assay [2], 2.91 µM; in [3] it was 2.39 µM; in assay [4], 1.36 µM; in assay [5], 1.2 µM; in assay [6], 9.09 µM. Moreover, the TGI in [7] was determined as 2.22 µM; in assay [8] it was 1.55 µM; in assay [9], 3.3 µM; in [10], 5.77 µM.
